Measured values reported in patent publication US20110077294A1, “R-(-) / S-(+)-7-[3-N SUBSTITUTED AMINO-2 HYDROXYPROPOXY] FLAVONES” (priority 2006, published 2011).

Key:
Type in all cases: in vivo
C57BL/KsBom-db/db mice [1] = assay: Oral glucose tolerance test (OGTT) on day 10 in db/db mice; conditions: 25 mg/kg
Protocol: (§1) C57BL/KsBom-db/db mice (12-18 weeks old), weighing around 35+g bred in the animal house of CDRI, Lucknow, were used in the present experiments. The mice were housed in groups of 3 to 5 (same sex) in a room controlled for temperature (23±2.0 ° C.) and 12/12 hours light/dark cycle (lights on at 6.00 am). Body weight of each animal was measured daily from day 1 to day 10 of the experiment. All animals had free access to fresh water and normal pellet diet except on the day of the postprandial protocol (day 6) and during the overnight fast before the OGTT on day 10. The animals always had access to water during experimental periods. Blood glucose was checked every morning up till day 10. On day 10 an oral glucose tolerance test (OGTT) was performed after an overnight fasting. Blood glucose was measured at −30.0 min and test compounds were administered. The blood glucose was again measured at 0 min just post treatment and at this juncture glucose solution was given at a dose of 3 gm/kg to all the groups including the vehicle treated group. The blood glucose levels were checked at 30 min, 60 min, 90 min and 120 min post glucose administration. The data was analyzed for its significance on Prism software.

C57BL/KsBom-db/db mice [2] = assay: Serum lipid profile of treated db/db mice (antidyslipidemic activity); conditions: db/db mice, 25 mg/kg
C57BL/KsBom-db/db mice [3] = assay: Blood glucose profile of db/db mice during daily treatment (antihyperglycemic activity)
Protocol: as §1

C57BL/KsBom-db/db mice [4] = assay: Serum lipid profile of treated db/db mice (antidyslipidemic activity); conditions: 25 mg/kg
Protocol: as §1

**Q.** For `CC(C)NC[C@H](O)COc1ccc2c(=O)cc(-c3cc(O)cc(O)c3)oc2c1` [S-002-857 (S), (S)-(+)-7-(2-Hydroxy-3-isopropylaminopropoxy)-3′,5′-dihydroxyflavone], which “Blood glucose profile, 0 min post glucose load” value (C57BL/KsBom-db/db mice [1]; OGTT day 10, 0 min) is on record?
**A.** 13.8 ± 2.18 mM

**Q.** What about the “Blood glucose % change compared to control, 0 min post glucose load” value (C57BL/KsBom-db/db mice [1]; OGTT day 10, 0 min, vs sham) of the same compound?
**A.** −21.1%

**Q.** What about the “Blood glucose profile, 30 min post glucose load” value (C57BL/KsBom-db/db mice [1]; OGTT day 10, 30 min) of the same compound?
**A.** 25.3 ± 0.58 mM

**Q.** What about the “Blood glucose % change compared to control, 30 min post glucose load” value (C57BL/KsBom-db/db mice [1]; OGTT day 10, 30 min, vs sham) of the same compound?
**A.** −23.7%

**Q.** And the “Blood glucose profile, 60 min post glucose load” value (C57BL/KsBom-db/db mice [1]; OGTT day 10, 60 min)?
**A.** 19.8 ± 1.20 mM

**Q.** And the “Blood glucose % change compared to control, 60 min post glucose load” value (C57BL/KsBom-db/db mice [1]; OGTT day 10, 60 min, vs sham)?
**A.** −26.9%

**Q.** And the “Blood glucose profile, 90 min post glucose load” value (C57BL/KsBom-db/db mice [1]; OGTT day 10, 90 min)?
**A.** 15.2 ± 0.48 mM

**Q.** What about the “Blood glucose % change compared to control, 90 min post glucose load” value (C57BL/KsBom-db/db mice [1]; OGTT day 10, 90 min, vs sham) of the same compound?
**A.** −31.5%

**Q.** And the “Blood glucose profile, 120 min post glucose load” value (C57BL/KsBom-db/db mice [1]; OGTT day 10, 120 min)?
**A.** 11.6 ± 0.58 mM

**Q.** And the “Blood glucose % change compared to control, 120 min post glucose load” value (C57BL/KsBom-db/db mice [1]; OGTT day 10, 120 min, vs sham)?
**A.** −37.6%

**Q.** What about the “Blood glucose profile, −30 min post glucose load” value (C57BL/KsBom-db/db mice [1]; OGTT day 10, −30 min) of the same compound?
**A.** 8.76 ± 1.90 mM

**Q.** And the “Blood glucose % change compared to control, −30 min post glucose load” value (C57BL/KsBom-db/db mice [1]; OGTT day 10, −30 min, vs sham)?
**A.** −32.2%

**Q.** And the “effect of 10 days treatment on glucose tolerance (overall improvement in OGTT)” value (C57BL/KsBom-db/db mice [1]; vs sham)?
**A.** 27%

**Q.** What about the “elevation in HDL-cholesterol level than control” value (C57BL/KsBom-db/db mice [2]) of the same compound?
**A.** 17.3%

**Q.** What about the “average blood glucose lowering” value (C57BL/KsBom-db/db mice [3]; 25.0 mg/kg) of the same compound?
**A.** around 20%

**Q.** What about the “Blood glucose, day 1 post treatment” value (C57BL/KsBom-db/db mice [3]; 25 mg/kg, day 1) of the same compound?
**A.** 12.7 ± 2.61 mM

**Q.** And the “Blood glucose % change compared to control, day 1” value (C57BL/KsBom-db/db mice [3]; 25 mg/kg, day 1, vs sham)?
**A.** −1.60%

**Q.** And the “Blood glucose, day 2 post treatment” value (C57BL/KsBom-db/db mice [3]; 25 mg/kg, day 2)?
**A.** 12.3 ± 2.40 mM

**Q.** And the “Blood glucose % change compared to control, day 2” value (C57BL/KsBom-db/db mice [3]; 25 mg/kg, day 2, vs sham)?
**A.** −0.80%

**Q.** What about the “Blood glucose, day 3 post treatment” value (C57BL/KsBom-db/db mice [3]; 25 mg/kg, day 3) of the same compound?
**A.** 11.5 ± 1.80 mM

**Q.** And the “Blood glucose % change compared to control, day 3” value (C57BL/KsBom-db/db mice [3]; 25 mg/kg, day 3, vs sham)?
**A.** −8.13%

**Q.** What about the “Blood glucose, day 4 post treatment” value (C57BL/KsBom-db/db mice [3]; 25 mg/kg, day 4) of the same compound?
**A.** 11.3 ± 2.54 mM

**Q.** What about the “Blood glucose % change compared to control, day 4” value (C57BL/KsBom-db/db mice [3]; 25 mg/kg, day 4, vs sham) of the same compound?
**A.** −12.7%

**Q.** What about the “Blood glucose, day 5 post treatment” value (C57BL/KsBom-db/db mice [3]; 25 mg/kg, day 5) of the same compound?
**A.** 10.1 ± 2.08 mM

**Q.** What about the “Blood glucose % change compared to control, day 5” value (C57BL/KsBom-db/db mice [3]; 25 mg/kg, day 5, vs sham) of the same compound?
**A.** −25.3%

**Q.** What about the “Blood glucose, day 6 post treatment” value (C57BL/KsBom-db/db mice [3]; 25 mg/kg, day 6) of the same compound?
**A.** 9.19 ± 2.25 mM

**Q.** What about the “Blood glucose % change compared to control, day 6” value (C57BL/KsBom-db/db mice [3]; 25 mg/kg, day 6, vs sham) of the same compound?
**A.** −29.1%

**Q.** What about the “Blood glucose, day 7 post treatment” value (C57BL/KsBom-db/db mice [3]; 25 mg/kg, day 7) of the same compound?
**A.** 9.41 ± 1.37 mM

**Q.** And the “lowering in blood glucose, day 7” value (C57BL/KsBom-db/db mice [3]; 25.0 mg/kg, day 7, statistically significant)?
**A.** around 37.4%

**Q.** And the “Blood glucose % change compared to control, day 7” value (C57BL/KsBom-db/db mice [3]; 25 mg/kg, day 7, vs sham)?
**A.** −37.4%

**Q.** What about the “Blood glucose, day 8 post treatment” value (C57BL/KsBom-db/db mice [3]; 25 mg/kg, day 8) of the same compound?
**A.** 9.28 ± 1.02 mM

**Q.** And the “lowering in blood glucose, day 8” value (C57BL/KsBom-db/db mice [3]; 25.0 mg/kg, day 8, statistically significant)?
**A.** ~36.8%

**Q.** What about the “Blood glucose % change compared to control, day 8” value (C57BL/KsBom-db/db mice [3]; 25 mg/kg, day 8, vs sham) of the same compound?
**A.** −36.8%

**Q.** What about the “Blood glucose, day 9 post treatment” value (C57BL/KsBom-db/db mice [3]; 25 mg/kg, day 9) of the same compound?
**A.** 7.56 ± 2.13 mM

**Q.** What about the “lowering in blood glucose, day 9” value (C57BL/KsBom-db/db mice [3]; 25.0 mg/kg, day 9, statistically significant) of the same compound?
**A.** ~43.3%

**Q.** And the “Blood glucose % change compared to control, day 9” value (C57BL/KsBom-db/db mice [3]; 25 mg/kg, day 9, vs sham)?
**A.** −43.3%

**Q.** And the “Serum lipid profile: Cholesterol” value (C57BL/KsBom-db/db mice [4])?
**A.** 152 ± 7.00 mg/dL

**Q.** And the “Serum lipid profile: HDL-Chol” value (C57BL/KsBom-db/db mice [4])?
**A.** 65.0 ± 6.03 mg/dL

**Q.** What about the “Serum lipid profile: Triglycerides” value (C57BL/KsBom-db/db mice [4]) of the same compound?
**A.** 124 ± 3.51 mg/dL

**Q.** What about the “serum cholesterol, triglycerides (lipid profile) compared to sham treated (in words)” value (C57BL/KsBom-db/db mice [4]) of the same compound?
**A.** not statistically significant

**Q.** And the “Cholesterol % change compared to control” value (C57BL/KsBom-db/db mice [4]; vs sham)?
**A.** −11.2%

**Q.** What about the “HDL-Chol % change compared to control” value (C57BL/KsBom-db/db mice [4]; vs sham) of the same compound?
**A.** +17.3%

**Q.** What about the “Triglycerides % change compared to control” value (C57BL/KsBom-db/db mice [4]; vs sham) of the same compound?
**A.** −6.54%
